Values of other authors, collected in patent US20090281186A1, “Composition and Method for Reducing Stress” (priority 2008, published 2009).

Columns and labels:
[1] = test system: dopamine release from the corpus straitum; serotonin levels in the hippocampus and thalamus; conditions: rats, L-theanine administration
[2] = sixteen individuals; acute administration; 200 mg of L-theanine or 1 mg of alprazolam vs placebo
[3] = inositol compared with fluvoxamine
[4] = 21 patients; 12 grams of inositol per day for four weeks; compared to placebo

Row | SMILES | dopamine release from the corpus straitum [1] | serotonin levels in the hippocampus and thalamus [1] | effect on subjects during the experimental relaxed state [2] | acute stress responses (psychological and physiological measures) (oral administration, 200 mg of L-theanine) | perception of stress (psychological measures) (twelve individuals, 200 mg of L-theanine before or midway through the task vs placebo) | heart rates during the stress task (twelve individuals, 200 mg of L-theanine vs placebo) | effectiveness in treating panic disorders [3] | severity and frequency of panic attacks [4]
1 | CCNC(=O)CCC(N)C(=O)O [L-theanine, 2-amino-4-(ethylcarbamoyl)butyric acid] | increase dopamine release | increase serotonin levels | caused a tranquil state | acute stress responses were reduced | greater increase in the perception of stress in the placebo condition compared to the other conditions | heart rates were higher in the placebo condition compared to the L-theanine groups | – | –
2 | Cc1nnc2n1-c1ccc(Cl)cc1C(c1ccccc1)=NC2 [alprazolam, reference compound] | – | – | had no effect | – | – | – | – | –
3 | O[C@H]1[C@H](O)[C@@H](O)[C@H](O)[C@@H](O)[C@H]1O [inositol, cis-1,2,3,5-trans-4,6-cyclohexanehexol] | – | – | – | – | – | – | equally effective | significantly decreased
